Laboratory results: the supplement of paper PMC7046801
Where a name gives a salt, the structure may show the parent alone.

Assays:
Conditions in all cases: 24 h
[1] = test system: NHEK immortalized keratinocytes
[2] = test system: NHEK immortalized keratinocytes; assay: IC50 cell viability (CellTiter-Glo)
[3] = test system: NKTC primary neonatal keratinocytes; assay: IC50 cell viability (CellTiter-Glo)
[4] = test system: NKTC primary neonatal keratinocytes

Compound | IC50 cell viability (WST-8) [1] [µM] | IC50 cell viability [2] [µM] | IC50 cell viability [3] [µM] | IC50 cell viability (WST-8) [4] [µM]
O=c1[nH]sc2ccccc12 [1,2-Benzisothiazolin-3-one] | 1.68 | 1.26 | 16 | 21.4
N#CCCC(Br)(C#N)CBr (centres undefined) [1,2-Dibromo-2,4-dicyanobutane] | > 88 | 60.4 | 77.7 | > 88
C[C@H](O)CCO [1,3-Butanediol] | 5.52 | 13.5 | – | –
O=[N+]([O-])c1ccc(Cl)c([N+](=O)[O-])c1 [1-Chloro-2,4-dinitrobenzene] | 4.76 | 5.43 | 9.18 | 9.18
CCCCCCCCCCCCN1CCCC1=O [1-Dodecyl-2-pyrrolidinone] | 15.8 | 18.4 | 29.1 | –
O=C(c1ccccc1)c1ccc(O)cc1O [2,4-Dihydroxybenzophenone] | 44.4 | 58.1 | – | –
C=CC(=O)OCCO [2-Hydroxyethyl acrylate] | 17.4 | 35.1 | – | –
Cn1sccc1=O [2-Methyl-4-isothiazolin-3-one hydrochloride] | 32.2 | 39.9 | – | –
CCCCNC(=O)OCC#CI [3-Iodo-2-propynyl-N-butylcarbamate] | > 88 | 76.7 | – | –
COc1ccc(C(C)=O)cc1 [4'-Methoxyacetophenone] | 53.4 | 55.5 | – | –
Cc1c2ccccc2c(C)c2c1ccc1ccccc12 [7,12-Dimethylbenz(a)anthracene] | 46.2 | 46.2 | 46.2 | 46.2
CCCCCCCCCCCC[N+](C)(C)Cc1ccccc1 [Benzyldimethyldodecylammonium chloride] | 3.36 | 2.91 | 43.1 | 22.2
CC(C)(c1ccc(OCC2CO2)cc1)c1ccc(OCC2CO2)cc1 (centres undefined) [Bisphenol A diglycidyl ether] | 43.7 | 39.1 | 71.2 | 65.2
O=[N+]([O-])C(Br)(CO)CO [Bronopol] | 24.9 | 24.1 | 73.2 | 53.8
CC1=CC(=C(c2ccc(N)cc2)c2ccc(N)cc2)C=CC1=N [C.I. Basic Violet 14] | – | 1.16 | – | –
CC(C)(C)C(=O)C(Oc1ccc(Cl)cc1)n1ccnc1 (centres undefined) [Climbazole] | – | 0.42 | – | –
O=C1OC2(c3cc(Br)c(O)c(Br)c3Oc3c2cc(Br)c(O)c3Br)c2c(Cl)c(Cl)c(Cl)c(Cl)c21 [D&C Red 27] | – | 44.9 | 28.1 | 22.3
O=c1c(-c2ccccc2)c1-c1ccccc1 [Diphenylcyclopropenone] | 36.6 | 30.8 | 5.69 | 5.47
CCCCCCCCCCCC(=O)O [Dodecanoic acid] | 58.1 | 58.1 | > 88 | > 88
CCCCCCCCCCCCOC(=O)c1cc(O)c(O)c(O)c1 [Dodecyl gallate] | 23.5 | 21 | – | –
CCCCCCCCCCCCc1ccc(S(=O)(=O)O)cc1 [Dodecylbenzenesulfonic acid] | 29.5 | 25.8 | 29.9 | 23
Cc1ccc(/C=C2/C(=O)C3(C)CCC2C3(C)C)cc1 (centres undefined) [Enzacamene] | > 88 | 71.3 | 71.6 | > 88
CCCCN(CCC(=O)OCC)C(C)=O [Ethyl 3-(N-butylacetamido)propionate] | – | 21 | – | –
O=CCCCC=O [Glutaraldehyde] | 24.4 | 20.2 | > 88 | > 88
Oc1c(Cl)cc(Cl)c(Cl)c1Cc1c(O)c(Cl)cc(Cl)c1Cl [Hexachlorophene] | 0.37 | 0.39 | 18.8 | 2.28

Compound | IC50 cell viability (WST-8) [1] [µM] | IC50 cell viability [2] [µM] | IC50 cell viability [3] [µM] | IC50 cell viability (WST-8) [4] [µM]
CC1(C)CNC(=NN=C(/C=C/c2ccc(C(F)(F)F)cc2)/C=C/c2ccc(C(F)(F)F)cc2)NC1 [Hydramethylnon] | 27 | 17 | 38.9 | 51.3
Oc1ccc(O)cc1 [Hydroquinone] | – | 39.1 | – | –
C=CC(=O)OCCCCCCCC(C)C [Isodecyl acrylate] | 1.54 | 3.55 | – | –
CC(=O)N1CCN(c2ccc(OCC3COC(Cn4ccnc4)(c4ccc(Cl)cc4Cl)O3)cc2)CC1 (centres undefined) [Ketoconazole] | 14 | 26.4 | – | –
CN=C1C=CC(=C(c2ccc(N(C)C)cc2)c2ccc(N(C)C)cc2)C=C1 [Methyl Violet] | 0.51 | 0.64 | – | –
CN(C)c1ccc(C(=C2C=CC(=[N+](C)C)C=C2)c2ccc(N(C)C)cc2)cc1 [Methylrosaniline chloride] | 1.51 | 1.99 | 41.5 | 42.8
CCCCC(CC)COC(=O)C(C#N)=C(c1ccccc1)c1ccccc1 (centres undefined) [Octocrylene] | 9.8 | 16.6 | – | –
Oc1c(Cl)c(Cl)c(Cl)c(Cl)c1Cl [Pentachlorophenol] | 0.12 | 0.51 | 4.23 | 1.18
O=C1C=CC(=C(c2ccc(O)cc2)c2ccccc2S(=O)(=O)O)C=C1 [Phenol Red sodium salt] | – | 79.9 | – | –
O=CCc1ccccc1 [Phenylacetaldehyde] | > 88 | > 88 | – | –
CC(=O)[O][Hg][c]1ccccc1 [Phenylmercuric acetate] | 0.01 | 0.06 | 0.37 | 0.38
CCCCCCCCCCCCCCCCOCCOCCOCCOCCOCCOCCOCCOCCOCCOCCOCCOCCOCCOCCOCCOCCOCCOCCOCCOCCO [Polyethylene glycol (20) hexadecyl ether] | 13.3 | – | – | –
[K+].[K+].[O]=[Cr](=[O])([O-])[O][Cr](=[O])(=[O])[O-] [Potassium dichromate] | 1.97 | 1.66 | 2.53 | 2.3
CC(=O)OCC(C)OC(C)=O (centres undefined) [Propylene glycol diacetate] | 27.7 | 35.7 | – | –
C=C/C=C\CC1=C(C)[C@@H](OC(=O)[C@@H]2[C@@H](/C=C(\C)C(=O)OC)C2(C)C)CC1=O.C=C/C=C\CC1=C(C)[C@@H](OC(=O)[C@@H]2[C@@H](C=C(C)C)C2(C)C)CC1=O [Pyrethrins] | 34.8 | – | – | –
CCN(CC)c1ccc2c(-c3ccccc3C(=O)O)c3ccc(=[N+](CC)CC)cc-3oc2c1 [Rhodamine B] | – | 42.8 | – | –
COC(C)(C)CCC[C@H](C)C/C=C/C(C)=C/C(=O)OC(C)C [S-Methoprene] | 82.5 | 82.5 | – | –
CCN(CC)c1ccc(C(=C2C=CC(=[N+](CC)CC)C=C2)c2ccc(S(=O)(=O)O)cc2S(=O)(=O)[O-])cc1 [Sulfan blue] | – | 41.3 | – | –
N#CC(Cl)(Cl)Cl [Trichloroacetonitrile] | 1.2 | 0.8 | 5.34 | 6.07
O=C(Nc1ccc(Cl)cc1)Nc1ccc(Cl)c(Cl)c1 [Triclocarban] | 2.31 | 2.7 | 6.78 | –
Oc1cc(Cl)ccc1Oc1ccc(Cl)cc1Cl [Triclosan] | > 88 | 55.1 | > 88 | 87.4
C=CC(=O)OCC(CC)(COC(=O)C=C)COC(=O)C=C [Trimethylolpropane triacrylate] | 24.9 | 24.9 | 20.6 | 24.9
C=C1CC[C@H](O)C/C1=C/C=C1\CCC[C@]2(C)[C@@H]([C@H](C)CCCC(C)C)CC[C@@H]12 [Vitamin D3] | 12.7 | 13.7 | – | –
CNc1ccc(O)cc1 [p-Methylaminophenol sulfate] | 8.53 | 6.78 | 24.3 | 13.9
CC(C)(C)c1cc(O)ccc1O [tert-Butylhydroquinone] | > 88 | 77.7 | 58.1 | –
